From paper PMC8342319, “Predicting blood-to-plasma concentration ratios of drugs from chemical structures and volumes of distribution in humans” (Molecular Diversity, 2021)
Read-outs that look alike come from different tables or passages of the source.

Tests used:
[1] = human
[2] = human, cited from earlier work
[3] = human, intravenous; median if multiple values were reported; ref numbers in Table S1; cited from earlier work
[4] = intravenous, median if multiple values were reported, ref numbers in Table S1

SMILES	in vivo MRT_(hr)_Human [1] [h]	in vivo Vd_(L/kg)_Human ([2]; in vivo, iv) [L/kg]	in vivo CL_(L/hr/kg)_Human [3] [L/h/kg]	in vivo Vd_(L/kg)_Human [2, 4] [L/kg]
CN(C)Cc1nnc2n1-c1ccc(Cl)cc1C(c1ccccc1)=NC2 [Adinazolam]	2.634	0.980	0.372	
Cc1[nH]cnc1CN1CCc2c(c3ccccc3n2C)C1=O [Alosetron]	2.107		0.522	1.100
Cc1cc(=O)n(-c2ccccc2)n1C [Antipyrine]	21.354		0.038	0.820
Cn1c(=O)c2c(ncn2C)n(C)c1=O [Caffeine]	8.095		0.084	0.680
COCc1c(C(C)C)nc(C(C)C)c(/C=C/[C@@H](O)C[C@@H](O)CC(=O)O)c1-c1ccc(F)cc1 [Cerivastatin]	1.897		0.174	0.330
CN(C)CCCN1c2ccccc2Sc2ccc(Cl)cc21 [Chlorpromazine]	10.938		0.960	10.500
NS(=O)(=O)c1cc(C2(O)NC(=O)c3ccccc32)ccc1Cl (centres unmarked) [Chlorthalidone]	43.333		0.046	3.900
CN/C(=N/CCSCc1nc[nH]c1C)NC#N [Cimetidine]	2.469		0.492	1.200
CN(C)CCCN1c2ccccc2CCc2ccc(Cl)cc21 [Clomipramine]	26.423		0.492	13.000
O=c1ccc2ccccc2o1 [Coumarin]	2.157		1.020	2.200
CNCCCN1c2ccccc2CCc2ccccc21 [Desipramine]	22.727			15.000
Cc1onc(-c2c(Cl)cccc2Cl)c1C(=O)N[C@@H]1C(=O)N2[C@@H]1SC(C)(C)[C@@H]2C(=O)O [Dicloxacillin]	0.917		0.108	0.110
O=c1[nH]cnc2c1ncn2[C@H]1CC[C@@H](CO)O1 [Didanosine]	1.197		0.660	
C[C@H]1O[C@@H](O[C@H]2[C@@H](O)C[C@H](O[C@H]3[C@@H](O)C[C@H](O[C@H]4CC[C@@]5(C)[C@H](CC[C@@H]6[C@@H]5C[C@@H](O)[C@]5(C)[C@@H](C7=CC(=O)OC7)CC[C@]65O)C4)O[C@@H]3C)O[C@@H]2C)C[C@H](O)[C@@H]1O [Digoxin]	40.196		0.102	4.100
COc1cc2nc(N3CCN(C(=O)C4COc5ccccc5O4)CC3)nc(N)c2cc1OC (centres unmarked) [Doxazosin]	13.542			1.300
CN(C)CCC=C1c2ccccc2COc2ccccc21 [Doxepin]	14.286		0.840	12.000
CC[C@@H](CO)NCCN[C@@H](CC)CO [Ethambutol]	2.833		0.600	1.700
CC(C)(C)NC(=O)[C@H]1CC[C@H]2[C@@H]3CC[C@H]4NC(=O)C=C[C@]4(C)[C@H]3CC[C@]12C [Finasteride]	7.639			1.100
O=C(NCC1CCCCN1)c1cc(OCC(F)(F)F)ccc1OCC(F)(F)F (centres unmarked) [Flecainide]	20.748			6.100
CN1CCN(c2c(F)cc3c(=O)c(C(=O)O)cn(CCF)c3c2F)CC1 [Fleroxacin]	10.764		0.144	1.550
OC(Cn1cncn1)(Cn1cncn1)c1ccc(F)cc1F [Fluconazole]	40.323		0.019	0.750
CC1(C)O[C@@H]2C[C@H]3[C@@H]4C[C@H](F)C5=CC(=O)C=C[C@]5(C)[C@H]4[C@@H](O)C[C@]3(C)[C@]2(C(=O)CO)O1 [Flunisolide]	2.500		0.720	
CC(C)n1c(/C=C/C(O)CC(O)CC(=O)O)c(-c2ccc(F)cc2)c2ccccc21 (centres unmarked) [Fluvastatin]	0.438			0.420
CN[C@@H]1CCc2[nH]c3ccc(C(N)=O)cc3c2C1 [Frovatriptan]	24.000		0.150	3.600
